Assay results published in US20190218207A1, “3-(Pyridin-3-yl)-Acrylamide and N-(Pyridin-3-yl)-Acrylamide Derivatives and Their Use as PAK or NAMPT Modulators” (Karyopharm Therapeutics Inc., priority 2015, published 2019).
Where two headings read alike, the source gives them in different places.

How the values were obtained:
3T3 cells = test: MTT cell proliferation assay, 3T3 cells; format: cell-based, mouse; conditions: 3T3 fibroblast cells, incubation approximately 64-72 hours
Experimental: (§1) The MTT cell proliferation assay was used to study the cytotoxic properties of the compounds. The assay was performed according to the method described by Roche Molecular Biochemicals, with minor modifications. The assay is based on the cleavage of the tetrazolium salt, MTT, in the presence of an electron-coupling reagent. The water-insoluble formazan salt produced must be solubilized in an additional step. Cells grown in a 96-well tissue culture plate were incubated with the MTT solution for approximately 4 hours. After this incubation period, a water-insoluble formazan dye formed. After solubilization, the formazan dye was quantitated using a scanning multi-well spectrophotometer (ELISA reader). […] The cells were seeded at 5,000-10,000 cells in each well of 96-well plate in 100 μL of fresh culture medium and were allowed to attach overnight. The stock solutions of the compounds were diluted in […] cell culture medium to obtain eight concentrations of each test compound, ranging from 1 nM to 30 μM. […] All optical densities were measured at 490 nm using a Vmax Kinetic Microplate Reader (Molecular Devices). In most cases, the assay was performed in duplicate and the results were presented as a mean percent inhibition to the negative control±SE. The following formula was used to calculate the percent of inhibition: Inhibition (%)=(1-(ODo/OD))×100.
(§2) The compounds were tested against MS751, Z138 and 3T3 cells. The MS751 cell line is derived from a metastasis to lymph node of human cervix from a patient diagnosed with squameous cell carcinoma of the cervix. The Z138 cell line is a mature B-cell acute lymphoblastic leukemia cell line derived from a patient with chronic lumphocytic leukemia. 3T3 cells are standard fibroblast cells; they were originally isolated from Swiss mouse embryo tissue.

Z138 cells = test: MTT cell proliferation assay, Z138 cells; format: cell-based, human
Experimental: as §1, §2

MS751 cells = test: MTT cell proliferation assay, MS751 cells; format: cell-based, human; conditions: incubation approximately 64-72 hours, read-out: MTT Assay IC50, MS 751
Experimental: as §1, §2

[1] = Homo sapiens, Z-138, incubation approximately 64-72 hours
[2] = incubation approximately 64-72 hours, read-out: MTT Assay IC50, Z-138

Molecule: Nc1ccc(/C=C/C(=O)NCc2ccc(-c3ccc(-c4ccc(C(=O)N5CC(F)(F)C5)cn4)cc3C(F)(F)F)o2)cn1 [Compound A003, (E)-3-(6-aminopyridin-3-yl)-N-((5-(4-(5-(3,3-difluoroazetidine-1-carbonyl)pyridin-2-yl)-2-(trifluoromethyl)phenyl)furan-2-yl)methyl)acrylamide]
- IC50 (3T3 cells; Mus musculus, NIH3T3): < 1 µM
- IC50 (Z138 cells; [1]): < 1 µM
- IC50 (MS751 cells; Homo sapiens): < 1 µM

Molecule: Nc1ccc(/C=C/C(=O)NCc2ccc(-c3ccc(-c4ccc(C(=O)N5CC(F)(F)C5)cc4)cc3C(F)(F)F)o2)cn1 [Compound A015, (E)-3-(6-aminopyridin-3-yl)-N-((5-(4′-(3,3-difluoroazetidine-1-carbonyl)-3-(trifluoromethyl)-[1,1′-biphenyl]-4-yl)furan-2-yl)methyl)acrylamide]
- IC50 (3T3 cells; Mus musculus, NIH3T3): > 10 µM
- IC50 (Z138 cells; [1]): < 1 µM
- IC50 (MS751 cells; Homo sapiens): < 1 µM

Molecule: (E)-(4′-(2′-(2-(6-aminopyridin-3-yl)vinyl)-5,5′-bioxazol-2-yl)-3′-(trifluoromethyl)biphenyl-4-yl)(3,3-difluoroazetidin-1-yl)methanone [Compound A027]
- IC50 (3T3 cells): > 10 µM
- IC50 (Z138 cells; [2]): > 10 µM
- IC50 (MS751 cells): > 10 µM

Molecule: Nc1ccc(/C=C/C(=O)NCc2ccc(-c3cc4cc(C(=O)N5CCC(F)(F)CC5)cnc4cc3C(F)(F)F)o2)cn1 [Compound A026, (E)-3-(6-aminopyridin-3-yl)-N-((5-(3-(4,4-difluoropiperidine-1-carbonyl)-7-(trifluoromethyl)quinolin-6-yl)furan-2-yl)methyl)acrylamide]
- IC50 (3T3 cells; Mus musculus, NIH3T3): 1 to 5 µM
- IC50 (Z138 cells; [1]): < 1 µM
- IC50 (MS751 cells; Homo sapiens): < 1 µM

Molecule: Cc1c(CNC(=O)/C=C/c2ccc(N)nc2)sc(-c2ccc(C3CC3C(=O)N3CC(F)C3)cc2C(F)(F)F)c1C (stereo not drawn) [Compound A017, (E)-3-(6-aminopyridin-3-yl)-N-((5-(4-(2-(3-fluoroazetidine-1-carbonyl)cyclopropyl)-2-(trifluoromethyl)phenyl)-3,4-dimethylthiophen-2-yl)methyl)acrylamide]
- IC50 (3T3 cells; Mus musculus, NIH3T3): > 10 µM
- IC50 (Z138 cells; [1]): < 1 µM
- IC50 (MS751 cells; Homo sapiens): 1 to 5 µM

Molecule: Nc1ccc(/C=C/C(=O)NCc2cnc(-c3ccc(-c4ccc(C(=O)N5CC(F)C5)cc4)cc3C(F)(F)F)o2)cn1 [Compound A021, (E)-3-(6-aminopyridin-3-yl)-N-((2-(4′-(3-fluoroazetidine-1-carbonyl)-3-(trifluoromethyl)-[1,1′-biphenyl]-4-yl)oxazol-5-yl)methyl)acrylamide]
- IC50 (3T3 cells; Mus musculus, NIH3T3): 1 to 5 µM
- IC50 (Z138 cells; [1]): < 1 µM
- IC50 (MS751 cells; Homo sapiens): < 1 µM

Molecule: (E)-3-(6-aminopyridin-3-yl)-N-((5-(1-chloro-6-(4,4-difluoropiperidine-1-carbonyl)naphthalen-2-yl)furan-2-yl)methyl)acrylamide [Compound A004]
- IC50 (3T3 cells): > 10 µM
- IC50 (Z138 cells; [2]): < 1 µM
- IC50 (MS751 cells): < 1 µM

Molecule: Nc1ccc(/C=C/C(=O)NCc2ccc(-c3ccc(-c4ccc(C(=O)N5CCC(F)(F)CC5)cc4F)cc3-c3ccc(F)cc3)o2)cn1 [Compound A007, (E)-3-(6-aminopyridin-3-yl)-N-((5-(4-(4,4-difluoropiperidine-1-carbonyl)-2,4″-difluoro-[1,1′:3′,1″-terphenyl]-4′-yl)furan-2-yl)methyl)acrylamide]
- IC50 (3T3 cells; Mus musculus, NIH3T3): 5 to 10 µM
- IC50 (Z138 cells; [1]): < 1 µM
- IC50 (MS751 cells; Homo sapiens): < 1 µM

Molecule: Nc1ccc(/C=C/C(=O)NCc2nnc(-c3ccc(-c4ccc(C(=O)N5CC(F)(F)C5)cc4)cc3C(F)(F)F)o2)cn1 [Compound A018, (E)-3-(6-aminopyridin-3-yl)-N-((5-(4′-(3,3-difluoroazetidine-1-carbonyl)-3-(trifluoromethyl)-[1,1′-biphenyl]-4-yl)-1,3,4-oxadiazol-2-yl)methyl)acrylamide]
- IC50 (3T3 cells; Mus musculus, NIH3T3): > 10 µM
- IC50 (Z138 cells; [1]): < 1 µM
- IC50 (MS751 cells; Homo sapiens): < 1 µM
